Data: ChEMBL document CHEMBL1138765, “Design, synthesis, and biological evaluation of biotin conjugates of 2-cyano-3,12-dioxooleana-1,9(11)-dien-28-oic acid for the isolation of the protein targets” (J Med Chem, 2004)

Tested on: MCF7
Test: Inhibitory concentration against proliferation of MCF-7 (ER Positive) breast cancer cells
Type: functional, cell-based
Settings: Homo sapiens

SMILES: CC1(C)CC[C@]2(C(=O)NCCCC(=O)NCCCCCCNC(=O)CCCCC3SC[C@@H]4NC(=O)N[C@H]34)CC[C@]3(C)C(C(=O)C=C4[C@@]5(C)C=C(C#N)C(=O)C(C)(C)[C@@H]5CC[C@]43C)C2C1 (stereo partly specified)
- IC50: 5260 nM

SMILES: COC(=O)[C@]12CCC(C)(C)CC1C1C(=O)C=C3[C@@]4(C)C=C(C#N)C(=O)[C@@](C)(COC(=O)CCCCCNC(=O)CCCC[C@@H]5SC[C@@H]6NC(=O)N[C@@H]65)[C@@H]4CC[C@@]3(C)[C@]1(C)CC2 (stereo partly specified)
- IC50: 550 nM

SMILES: CC1(C)CC[C@]2(C(=O)O)CC[C@]3(C)[C@H](C(=O)C=C4[C@@]5(C)C=C(C#N)C(=O)C(C)(C)[C@@H]5CC[C@]43C)[C@@H]2C1 [BARDOXOLONE]
- IC50: 160 nM

SMILES: COC(=O)[C@]12CCC(C)(C)CC1C1C(=O)C=C3[C@@]4(C)C=C(C#N)C(=O)[C@@](C)(CO)[C@@H]4CC[C@@]3(C)[C@]1(C)CC2 (stereo partly specified)
- IC50: 80 nM

SMILES: CC1(C)CC[C@]2(C(=O)NCCCCCCNC(=O)CCCCC3SC[C@@H]4NC(=O)N[C@H]34)CC[C@]3(C)C(C(=O)C=C4[C@@]5(C)C=C(C#N)C(=O)C(C)(C)[C@@H]5CC[C@]43C)C2C1 (stereo partly specified)
- IC50: 3310 nM

SMILES: COC(=O)[C@]12CCC(C)(C)C[C@H]1[C@H]1C(=O)C=C3[C@@]4(C)C=C(C#N)C(=O)C(C)(C)[C@@H]4CC[C@@]3(C)[C@]1(C)CC2 [BARDOXOLONE METHYL]
- IC50: 50 nM
